Results as given in patent publication US12662491B2 (Redona Therapeutics, Inc., priority 2020, dated 2026).

Biological target: T1, Zcchc11 enzyme (Homo sapiens, UniProt Q5TAX3)
T1 construct: made in house; host or cells: HEK293 cells (Zcchc11); E. coli Rosetta II (LIN28A)
T1 sequence (Q5TAX3 212-1420): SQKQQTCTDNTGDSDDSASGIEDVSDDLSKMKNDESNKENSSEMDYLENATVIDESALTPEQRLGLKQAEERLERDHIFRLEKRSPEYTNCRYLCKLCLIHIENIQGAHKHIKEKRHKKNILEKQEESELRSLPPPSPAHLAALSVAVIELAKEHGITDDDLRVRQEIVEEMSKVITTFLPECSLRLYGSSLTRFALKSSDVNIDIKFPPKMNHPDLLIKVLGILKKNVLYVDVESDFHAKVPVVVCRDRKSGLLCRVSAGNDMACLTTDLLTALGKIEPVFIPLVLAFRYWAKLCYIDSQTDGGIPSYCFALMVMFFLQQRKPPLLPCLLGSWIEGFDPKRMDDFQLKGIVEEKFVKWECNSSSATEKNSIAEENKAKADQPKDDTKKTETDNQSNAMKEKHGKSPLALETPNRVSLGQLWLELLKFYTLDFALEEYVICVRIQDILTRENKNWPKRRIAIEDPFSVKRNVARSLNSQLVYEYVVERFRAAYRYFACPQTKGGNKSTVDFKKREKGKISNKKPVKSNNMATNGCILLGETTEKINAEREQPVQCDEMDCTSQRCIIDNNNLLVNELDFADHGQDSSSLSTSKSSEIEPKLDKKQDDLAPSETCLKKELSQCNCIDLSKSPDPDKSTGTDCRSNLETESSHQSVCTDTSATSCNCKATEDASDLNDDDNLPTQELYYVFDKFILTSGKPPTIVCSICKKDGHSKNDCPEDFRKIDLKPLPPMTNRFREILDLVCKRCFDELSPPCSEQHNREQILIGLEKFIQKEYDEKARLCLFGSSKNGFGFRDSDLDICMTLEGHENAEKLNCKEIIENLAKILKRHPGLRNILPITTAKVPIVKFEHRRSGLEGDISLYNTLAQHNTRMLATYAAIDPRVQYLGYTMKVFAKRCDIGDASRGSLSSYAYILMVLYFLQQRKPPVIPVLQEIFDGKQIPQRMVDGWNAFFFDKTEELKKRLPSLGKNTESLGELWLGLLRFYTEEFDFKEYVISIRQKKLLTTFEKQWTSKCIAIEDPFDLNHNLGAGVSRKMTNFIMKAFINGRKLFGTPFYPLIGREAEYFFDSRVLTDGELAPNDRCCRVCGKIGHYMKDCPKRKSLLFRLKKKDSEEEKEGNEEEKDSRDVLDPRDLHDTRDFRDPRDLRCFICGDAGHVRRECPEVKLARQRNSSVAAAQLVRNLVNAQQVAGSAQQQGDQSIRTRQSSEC
Test: TUTase assay (Zcchc11 assay, Lin28a-dependent polyuridylation of pre-let-7)
Assay type: biochemical
Settings: Lin28a-dependent Zcchc11 (Z11) TUTase activity; read-out: Potency Lin28a-dep Z11 IC50
Outline: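 Potency is measured as inhibition of LIN28A-driven U-tail addition to 2 nM pre-let-7 by 0.2 nM HEK293-derived Zcchc11 fragment with 5 uM UTP at room temperature. Tail growth appears as fluorescein quenching by an annealing rhodamine-A20 probe.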

Row | SMILES | IC50
1 | O=C(O)c1cn(-c2ccccc2)c2c(F)c(N3CCC[C@H]3COc3ccccn3)c(F)cc2c1=O [a, (S)-6,8-difluoro-4-oxo-1-phenyl-7-(2-((pyridin-2-yloxy)methyl)pyrrolidin-1-yl)-1,4-dihydro-quinoline-3-carboxylic acid] | 10000 to 50000 nM

Same assay, conditions: Lin28a-dependent Zcchc11 (Z11) TUTase assay; read-out: Potency Lin28a-dep Z11 IC50

Row | SMILES | IC50
2 | CN(C)C1CN(c2ccc(-n3cc(C(=O)O)c(=O)c4cc(Cl)c(N5CC6(CC6)C[C@@H]5COc5nc(OC6CC6)ccc5Cl)cc43)cn2)C1 [Example 675, (R)-6-chloro-7-(6-(((3-chloro-6-cyclopropoxy-pyridin-2-yl)oxy)methyl)-5-azaspiro[2.4]heptan-5-yl)-1-(6-(3-(dimethylamino)azetidin-1-yl)pyridin-3-yl)-4-oxo-1,4-dihydroquinoline-3-carboxylic acid] | ≤ 1000 nM
3 | COc1ccc(C)c(OC[C@H]2C[C@H]3C[C@H]3N2c2cc3c(cc2Cl)c(=O)c(C(=O)O)cn3-c2ccc(N3CC(N(C)C)C3)nc2)n1 [Example 676, 6-chloro-1-(6-(3-(dimethylamino)azetidin-1-yl)pyridin-3-yl)-7-((1R,3R,5R)-3-(((6-methoxy-3-methylpyridin-2-yl)oxy)methyl)-2-azabicyclo[3.1.0]hexan-2-yl)-4-oxo-1,4-dihydroquinoline-3-carboxylic acid] | ≤ 1000 nM
4 | COc1ccnc(OC[C@H]2C[C@H]3C[C@H]3N2c2nc3c(cc2F)c(=O)c(C(=O)O)cn3-c2ccc(N3CC(N(C)C)C3)nc2)c1Cl [Example 678, 7-((1R,3R,5R)-3-(((3-chloro-4-methoxypyridin-2-yl)oxy)methyl)-2-azabicyclo[3.1.0]hexan-2-yl)-1-(6-(3-(dimethylamino)azetidin-1-yl)pyridin-3-yl)-6-fluoro-4-oxo-1,4-dihydro-1,8-naphthyridine-3-carboxylic acid] | ≤ 1000 nM
5 | COc1ccnc(OC[C@H]2C[C@H]3C[C@H]3N2c2nc3c(cc2Cl)c(=O)c(C(=O)O)cn3-c2ccc(N3CC(N(C)C)C3)nc2)c1Cl [Example 679, 6-chloro-7-((1R,3R,5R)-3-(((3-chloro-4-methoxypyridin-2-yl)oxy)methyl)-2-azabicyclo[3.1.0]hexan-2-yl)-1-(6-(3-(dimethylamino)azetidin-1-yl)pyridin-3-yl)-4-oxo-1,4-dihydro-1,8-naphthyridine-3-carboxylic acid] | ≤ 1000 nM
6 | COc1ccc(C)c(OC[C@H]2C[C@H]3C[C@H]3N2c2cc3c(cc2F)c(=O)c(C(=O)O)cn3-c2ccc(N3CC(N(C)C)C3)nc2)n1 [Example 682, 1-(6-(3-(dimethylamino)azetidin-1-yl)pyridin-3-yl)-6-fluoro-7-((1R,3R, 5R)-3-(((6-methoxy-3-methylpyridin-2-yl)oxy)methyl)-2-azabicyclo[3.1.0]hexan-2-yl)-4-oxo-1,4-dihydroquinoline-3-carboxylic acid] | ≤ 1000 nM
7 | COc1ccnc(OC[C@H]2C[C@H]3C[C@H]3N2c2cc3c(cc2Cl)c(=O)c(C(=O)O)cn3-c2ccc(N3CC(N(C)C)C3)nc2)c1C [Example 683, 6-chloro-1-(6-(3-(dimethylamino)azetidin-1-yl)pyridin-3-yl)-7-((1R,3R,5R)-3-(((4-methoxy-3-methylpyridin-2-yl)oxy)methyl)-2-azabicyclo[3.1.0]hexan-2-yl)-4-oxo-1,4-dihydroquinoline-3-carboxylic acid] | ≤ 1000 nM
8 | COc1ccc(Cl)c(OC[C@H]2[C@@H](OC)CCN2c2cc3c(cc2Cl)c(=O)c(C(=O)O)cn3-c2ccc(N3CC(N(C)C)C3)nc2)n1 [Example 684, 6-chloro-7-((2S,3S)-2-(((3-chloro-6-methoxypyridin-2-yl)oxy)methyl)-3-methoxypyrrolidin-1-yl)-1-(6-(3-(dimethylamino)azetidin-1-yl)pyridin-3-yl)-4-oxo-1,4-dihydroquinoline-3-carboxylic acid] | ≤ 1000 nM
9 | COc1ccnc(OC[C@H]2C[C@H]3C[C@H]3N2c2cc3c(cc2F)c(=O)c(C(=O)O)cn3-c2ccc(N3CC(N(C)C)C3)nc2)c1F [Example 686, 1-(6-(3-(dimethylamino)azetidin-1-yl)pyridin-3-yl)-6-fluoro-7-((1R,3R, 5R)-3-(((3-fluoro-4-methoxypyridin-2-yl)oxy)methyl)-2-azabicyclo[3.1.0]hexan-2-yl)-4-oxo-1,4-dihydroquinoline-3-carboxylic acid] | ≤ 1000 nM
10 | CN(C)C1CN(c2ccc(-n3cc(C(=O)O)c(=O)c4cc(C#N)c(N5CCC[C@]5(C)COc5ncccc5F)cc43)cn2)C1 [Example 687, (R)-6-cyano-1-(6-(3-(dimethylamino)azetidin-1-yl)pyridin-3-yl)-7-(2-(((3-fluoropyridin-2-yl)oxy)methyl)-2-methylpyrrolidin-1-yl)-4-oxo-1,4-dihydroquinoline-3-carboxylic acid] | ≤ 1000 nM

Results, then the compound that gave them:

Row | IC50 | SMILES
11 | ≤ 1000 nM | CN(C)C1CN(c2ccc(-n3cc(C(=O)O)c(=O)c4cc(F)c(N5CC[C@@H](F)[C@@H]5COc5ncccc5Cl)cc43)cn2)C1 [Example 671, 7-((2S,3R)-2-(((3-chloropyridin-2-yl)oxy)methyl)-3-fluoropyrrolidin-1-yl)-1-(6-(3-(dimethylamino)azetidin-1-yl)pyridin-3-yl)-6-fluoro-4-oxo-1,4-dihydroquinoline-3-carboxylic acid]
12 | ≤ 1000 nM | CN(C)C1CN(c2ccc(-n3cc(C(=O)O)c(=O)c4cc(Cl)c(N5[C@@H](COc6nc(OC7CC7)ccc6Cl)C[C@H]6C[C@H]65)cc43)cn2)C1 [Example 672, 6-chloro-7-((1R,3R,5R)-3-(((3-chloro-6-cyclopropoxy-pyridin-2-yl)oxy)methyl)-2-azabicyclo[3.1.0]hexan-2-yl)-1-(6-(3-(dimethylamino)azetidin-1-yl)pyridin-3-yl)-4-oxo-1,4-dihydroquinoline-3-carboxylic acid]
13 | ≤ 1000 nM | COc1ccnc(OC[C@H]2C[C@H]3C[C@H]3N2c2cc3c(cc2F)c(=O)c(C(=O)O)cn3-c2ccc(N3CC(N(C)C)C3)nc2)c1Cl [Example 673, 7-((1R,3R,5R)-3-(((3-chloro-4-methoxypyridin-2-yl)oxy)methyl)-2-azabicyclo[3.1.0]hexan-2-yl)-1-(6-(3-(dimethylamino)azetidin-1-yl)pyridin-3-yl)-6-fluoro-4-oxo-1,4-dihydroquinoline-3-carboxylic acid]
14 | ≤ 1000 nM | COc1ccnc(OC[C@H]2C[C@H]3C[C@H]3N2c2cc3c(cc2Cl)c(=O)c(C(=O)O)cn3-c2ccc(N3CC(N(C)C)C3)nc2)c1Cl [Example 674, 6-chloro-7-((1R,3R,5R)-3-(((3-chloro-4-methoxypyridin-2-yl)oxy)methyl)-2-azabicyclo[3.1.0]hexan-2-yl)-1-(6-(3-(dimethylamino)azetidin-1-yl)pyridin-3-yl)-4-oxo-1,4-dihydroquinoline-3-carboxylic acid]
15 | ≤ 1000 nM | COc1ccc(Cl)c(OC[C@H]2C[C@H]3C[C@H]3N2c2nc3c(cc2Cl)c(=O)c(C(=O)O)cn3-c2ccc(N3CC(N(C)C)C3)nc2)n1 [Example 677, 6-chloro-7-((1R,3R,5R)-3-(((3-chloro-6-methoxypyridin-2-yl)oxy)methyl)-2-azabicyclo[3.1.0]hexan-2-yl)-1-(6-(3-(dimethylamino)azetidin-1-yl)pyridin-3-yl)-4-oxo-1,4-dihydro-1,8-naphthyridine-3-carboxylic aci]
16 | ≤ 1000 nM | COc1ccnc(OC[C@H]2C[C@H]3C[C@H]3N2c2cc3c(cc2F)c(=O)c(C(=O)O)cn3-c2ccc(N3CC(N(C)C)C3)nc2)c1C [Example 681, 1-(6-(3-(dimethylamino)azetidin-1-yl)pyridin-3-yl)-6-fluoro-7-((1R,3R,5R)-3-(((4-methoxy-3-methylpyridin-2-yl)oxy)methyl)-2-azabicyclo[3.1.0]hexan-2-yl)-4-oxo-1,4-dihydroquinoline-3-carboxylic acid]
17 | ≤ 1000 nM | COc1ccnc(OC[C@H]2C[C@H]3C[C@H]3N2c2cc3c(cc2Cl)c(=O)c(C(=O)O)cn3-c2ccc(N3CC(N(C)C)C3)nc2)c1F [Example 685, 6-chloro-1-(6-(3-(dimethylamino)azetidin-1-yl)pyridin-3-yl)-7-((1R,3R,5R)-3-(((3-fluoro-4-methoxypyridin-2-yl)oxy)methyl)-2-azabicyclo[3.1.0]hexan-2-yl)-4-oxo-1,4-dihydroquinoline-3-carboxylic acid]
